Assay results published in US10770169B2, “Method of providing a treatment to a subject based on a dynamic pathway map” (THE REGENTS OF THE UNIVERSITY OF CALIFORNIA, priority 2010, dated 2020).
Where two headings read alike, the source gives them in different places.

Tested on: panel of 55 breast cancer cell lines
Test: Cell growth inhibition assay (Cell Titer Glo, 72 h, 9 doses; GI50, TGI, LC50)
Format: cell-based, human

ICRF-193 was tested, and the GI50 (AU565 cell line, censored GI50 values, value is the negative log10 of mol/L) was 6.14, the GI50 (HCC38 cell line, censored GI50 values, value is the negative log10 of mol/L) was 6.54 and the GI50 (HCC1187 cell line, censored GI50 values, value is the negative log10 of mol/L) was 6.05. For the same compound, the GI50 (HCC1500 cell line, censored GI50 values, value is the negative log10 of mol/L) was 4.66, the GI50 (HCC1954 cell line, censored GI50 values, value is the negative log10 of mol/L) was 4.82 and the GI50 (HCC2185 cell line, censored GI50 values, value is the negative log10 of mol/L) was 5.69. The GI50 (SKBR3 cell line, censored GI50 values, value is the negative log10 of mol/L) was 5.22, the GI50 (SUM149PT cell line, censored GI50 values, value is the negative log10 of mol/L) was 4.75 and the GI50 (SUM159PT cell line, censored GI50 values, value is the negative log10 of mol/L) was 6.38. It also gave a GI50 (SUM1315MO2 cell line, censored GI50 values, value is the negative log10 of mol/L) of 6.21, a GI50 (UACC812 cell line, censored GI50 values, value is the negative log10 of mol/L) of 4.66 and a GI50 (ZR75B cell line, censored GI50 values, value is the negative log10 of mol/L) of 6.60. It also gave a GI50 (ZR751 cell line, censored GI50 values, value is the negative log10 of mol/L) of 6.07, a GI50 (cell line AU565, value is the negative log10 of mol/L) of 6.14 and a GI50 (cell line BT20, value is the negative log10 of mol/L) of 4.38. The GI50 (cell line BT474, value is the negative log10 of mol/L) was 4.30, the GI50 (cell line CAMA1, value is the negative log10 of mol/L) was 4.30 and the GI50 (cell line HCC38, value is the negative log10 of mol/L) was 6.54. The GI50 (cell line HCC1143, value is the negative log10 of mol/L) was 4.30, the GI50 (cell line HCC1187, value is the negative log10 of mol/L) was 6.05 and the GI50 (cell line HCC1428, value is the negative log10 of mol/L) was 4.38. It also gave a GI50 (cell line HCC1500, value is the negative log10 of mol/L) of 4.66, a GI50 (cell line HCC1806, value is the negative log10 of mol/L) of 4.30 and a GI50 (cell line HCC1937, value is the negative log10 of mol/L) of 4.30. It also gave a GI50 (cell line HCC1954, value is the negative log10 of mol/L) of 4.82, a GI50 (cell line HCC2185, value is the negative log10 of mol/L) of 5.69 and a GI50 (cell line MDAMB436, value is the negative log10 of mol/L) of 4.30. The GI50 (cell line MDAMB453, value is the negative log10 of mol/L) was 4.45, the GI50 (cell line SKBR3, value is the negative log10 of mol/L) was 5.22 and the GI50 (cell line SUM149PT, value is the negative log10 of mol/L) was 4.75. For the same compound, the GI50 (cell line SUM159PT, value is the negative log10 of mol/L) was 6.38, the GI50 (cell line SUM1315MO, value is the negative log10 of mol/L) was 6.21 and the GI50 (cell line UACC812, value is the negative log10 of mol/L) was 4.66. The GI50 (cell line ZR75B, value is the negative log10 of mol/L) was 6.60 and the GI50 (cell line ZR751, value is the negative log10 of mol/L) was 6.07.
In the case of `COc1cc(Nc2c(C#N)cnc3cc(OCCCN4CCN(C)CC4)c(OC)cc23)c(Cl)cc1Cl` [Bosutinib], the GI50 (Homo sapiens, 600MPE cell line, censored GI50 values, read-out: GI50 (converted)) is reported as 8910 nM, the GI50 (Homo sapiens, AU565, AU565 cell line, censored GI50 values, read-out: GI50 (converted)) is reported as 2140 nM and the GI50 (Homo sapiens, AU565, cell line AU565, read-out: GI50 (converted)) is reported as 2140 nM. The GI50 (Homo sapiens, BT-20, BT20 cell line, censored GI50 values, read-out: GI50 (converted)) was 1380 nM, the GI50 (Homo sapiens, BT-20, cell line BT20, read-out: GI50 (converted)) was 1380 nM and the GI50 (Homo sapiens, BT-474, BT474 cell line, censored GI50 values, read-out: GI50 (converted)) was 724 nM. For the same compound, the GI50 (Homo sapiens, BT-474, cell line BT474, read-out: GI50 (converted)) was 724 nM, the GI50 (Homo sapiens, BT-483, BT483 cell line, censored GI50 values, read-out: GI50 (converted)) was 3550 nM and the GI50 (Homo sapiens, BT-483, cell line BT483, read-out: GI50 (converted)) was 3550 nM. It also gave a GI50 (Homo sapiens, CAMA-1, CAMA1 cell line, censored GI50 values, read-out: GI50 (converted)) of 3240 nM, a GI50 (Homo sapiens, CAMA-1, cell line CAMA1, read-out: GI50 (converted)) of 3240 nM and a GI50 (Homo sapiens, HCC38, HCC38 cell line, censored GI50 values, read-out: GI50 (converted)) of 891 nM. For the same compound, the GI50 (Homo sapiens, HCC38, cell line HCC38, read-out: GI50 (converted)) was 891 nM, the GI50 (Homo sapiens, HCC70, HCC70 cell line, censored GI50 values, read-out: GI50 (converted)) was 891 nM and the GI50 (Homo sapiens, HCC70, cell line HCC70, read-out: GI50 (converted)) was 891 nM. For the same compound, the GI50 (Homo sapiens, HCC1143, HCC1143 cell line, censored GI50 values, read-out: GI50 (converted)) was 4900 nM, the GI50 (Homo sapiens, HCC1143, cell line HCC1143, read-out: GI50 (converted)) was 4900 nM and the GI50 (Homo sapiens, HCC1187, HCC1187 cell line, censored GI50 values, read-out: GI50 (converted)) was 3160 nM. The GI50 (Homo sapiens, HCC1187, cell line HCC1187, read-out: GI50 (converted)) was 3160 nM, the GI50 (Homo sapiens, HCC1419, HCC1419 cell line, censored GI50 values, read-out: GI50 (converted)) was 759 nM and the GI50 (Homo sapiens, HCC1419, cell line HCC1419, read-out: GI50 (converted)) was 759 nM. The GI50 (Homo sapiens, HCC1428, HCC1428 cell line, censored GI50 values, read-out: GI50 (converted)) was 3890 nM, the GI50 (Homo sapiens, HCC1428, cell line HCC1428, read-out: GI50 (converted)) was 3890 nM and the GI50 (Homo sapiens, HCC1500, HCC1500 cell line, censored GI50 values, read-out: GI50 (converted)) was 2570 nM. For the same compound, the GI50 (Homo sapiens, HCC1500, cell line HCC1500, read-out: GI50 (converted)) was 2570 nM, the GI50 (Homo sapiens, HCC1806, HCC1806 cell line, censored GI50 values, read-out: GI50 (converted)) was 2090 nM and the GI50 (Homo sapiens, HCC1806, cell line HCC1806, read-out: GI50 (converted)) was 2090 nM. For the same compound, the GI50 (Homo sapiens, HCC1937, HCC1937 cell line, censored GI50 values, read-out: GI50 (converted)) was 1450 nM, the GI50 (Homo sapiens, HCC1937, cell line HCC1937, read-out: GI50 (converted)) was 1450 nM and the GI50 (Homo sapiens, HCC1954, HCC1954 cell line, censored GI50 values, read-out: GI50 (converted)) was 1170 nM. It also gave a GI50 (Homo sapiens, HCC1954, cell line HCC1954, read-out: GI50 (converted)) of 1170 nM, a GI50 (Homo sapiens, HCC2185 cell line, censored GI50 values, read-out: GI50 (converted)) of 5010 nM and a GI50 (Homo sapiens, HCC3153 cell line, censored GI50 values, read-out: GI50 (converted)) of 3800 nM. It also gave a GI50 (Homo sapiens, LY2 cell line, censored GI50 values, read-out: GI50 (converted)) of 2450 nM, a GI50 (Homo sapiens, MCF7, MCF7 cell line, censored GI50 values, read-out: GI50 (converted)) of 2570 nM and a GI50 (Homo sapiens, MCF7, cell line MCF7, read-out: GI50 (converted)) of 2570 nM. For the same compound, the GI50 (Homo sapiens, MDA-MB-175-VII, MDAMB175VII cell line, censored GI50 values, read-out: GI50 (converted)) was 1070 nM, the GI50 (Homo sapiens, MDA-MB-361, MDAMB361 cell line, censored GI50 values, read-out: GI50 (converted)) was 1510 nM and the GI50 (Homo sapiens, MDA-MB-436, MDAMB436 cell line, censored GI50 values, read-out: GI50 (converted)) was 5010 nM. It also gave a GI50 (Homo sapiens, MDA-MB-453, MDAMB453 cell line, censored GI50 values, read-out: GI50 (converted)) of 2340 nM, a GI50 (Homo sapiens, MDA-MB-468, MDAMB468 cell line, censored GI50 values, read-out: GI50 (converted)) of 2570 nM and a GI50 (Homo sapiens, SK-BR-3, SKBR3 cell line, censored GI50 values, read-out: GI50 (converted)) of 3890 nM. For the same compound, the GI50 (Homo sapiens, SUM52PE, SUM52PE cell line, censored GI50 values, read-out: GI50 (converted)) was 1450 nM, the GI50 (Homo sapiens, SUM149PT, SUM149PT cell line, censored GI50 values, read-out: GI50 (converted)) was 759 nM and the GI50 (Homo sapiens, SUM1315MO2, SUM1315MO2 cell line, censored GI50 values, read-out: GI50 (converted)) was 871 nM. The GI50 (Homo sapiens, SUM-159-PT, SUM159PT cell line, censored GI50 values, read-out: GI50 (converted)) was 1380 nM, the GI50 (Homo sapiens, T47D, T47D cell line, censored GI50 values, read-out: GI50 (converted)) was 5620 nM and the GI50 (Homo sapiens, UACC-812, UACC812 cell line, censored GI50 values, read-out: GI50 (converted)) was 2750 nM. It also gave a GI50 (Homo sapiens, ZR-75-1, ZR751 cell line, censored GI50 values, read-out: GI50 (converted)) of 14100 nM, a GI50 (Homo sapiens, ZR-75B, ZR75B cell line, censored GI50 values, read-out: GI50 (converted)) of 7080 nM and a GI50 (Homo sapiens, cell line 600MPE, read-out: GI50 (converted)) of 8910 nM. It also gave a GI50 (Homo sapiens, cell line HCC2185, read-out: GI50 (converted)) of 5010 nM, a GI50 (Homo sapiens, cell line HCC3153, read-out: GI50 (converted)) of 3800 nM and a GI50 (Homo sapiens, cell line LY2, read-out: GI50 (converted)) of 2450 nM.
With `COc1cc2c(Nc3ccc(NC(=O)c4ccccc4)cc3)ncnc2cc1OCCCN1CCOCC1` [ZM447439] the GI50 (cell line AU565, censored GI50 values, value is the negative log10 of mol/L) was 5.82, the GI50 (cell line BT20, censored GI50 values, value is the negative log10 of mol/L) was 5.29 and the GI50 (cell line BT474, censored GI50 values, value is the negative log10 of mol/L) was 4.20. It also gave a GI50 (cell line BT483, censored GI50 values, value is the negative log10 of mol/L) of 4.57, a GI50 (cell line CAMA1, censored GI50 values, value is the negative log10 of mol/L) of 5.40 and a GI50 (cell line HCC38, censored GI50 values, value is the negative log10 of mol/L) of 6.24. It also gave a GI50 (cell line HCC70, censored GI50 values, value is the negative log10 of mol/L) of 6.01, a GI50 (cell line HCC1143, censored GI50 values, value is the negative log10 of mol/L) of 4.98 and a GI50 (cell line HCC1187, censored GI50 values, value is the negative log10 of mol/L) of 6.19. The GI50 (cell line HCC1419, censored GI50 values, value is the negative log10 of mol/L) was 5.32, the GI50 (cell line HCC1428, censored GI50 values, value is the negative log10 of mol/L) was 5.13 and the GI50 (cell line HCC1500, censored GI50 values, value is the negative log10 of mol/L) was 5.28. The GI50 (cell line HCC1937, censored GI50 values, value is the negative log10 of mol/L) was 5.23, the GI50 (cell line HCC2185, censored GI50 values, value is the negative log10 of mol/L) was 5.92 and the GI50 (cell line MDAMB134VI, censored GI50 values, value is the negative log10 of mol/L) was 4.66. For the same compound, the GI50 (cell line MDAMB175VII, censored GI50 values, value is the negative log10 of mol/L) was 4.28, the GI50 (cell line MDAMB361, censored GI50 values, value is the negative log10 of mol/L) was 5.53 and the GI50 (cell line MDAMB436, censored GI50 values, value is the negative log10 of mol/L) was 5.33. For the same compound, the GI50 (cell line MDAMB468, censored GI50 values, value is the negative log10 of mol/L) was 6.18, the GI50 (cell line SKBR3, censored GI50 values, value is the negative log10 of mol/L) was 4.77 and the GI50 (cell line SUM52PE, censored GI50 values, value is the negative log10 of mol/L) was 5.40. It also gave a GI50 (cell line SUM185PE, censored GI50 values, value is the negative log10 of mol/L) of 4.50, a GI50 (cell line T47D, censored GI50 values, value is the negative log10 of mol/L) of 4.94 and a GI50 (cell line UACC812, censored GI50 values, value is the negative log10 of mol/L) of 4.88. It also gave a GI50 (cell line ZR75B, censored GI50 values, value is the negative log10 of mol/L) of 5.00 and a GI50 (cell line ZR751, censored GI50 values, value is the negative log10 of mol/L) of 5.46.
